Data published in ChEMBL document CHEMBL1130677, “Growth inhibitory effect of juvenile hormone analogues on epimastigotes of Trypanosoma cruzi” (Bioorg Med Chem Lett, 1998).
Values after ≈ are worked out from the molar mass of the structure shown.

Test system: Trypanosoma cruzi
Assay: Growth inhibitory activity against Trypanosoma cruzi (Epimastigote)
Assay type: functional, organism-based

Row | Structure (SMILES) | IC50
1 | CCCOC(=O)NCCOc1ccc(C[C@@H]2CCCC[C@H]2O)cc1 | 37.3 µg/mL (≈ 111 µM)
2 | CC(C)OC(=O)NCCOc1ccc(C[C@@H]2CCCC[C@H]2O)cc1 | 194 µg/mL (≈ 578 µM)
3 | CCOC(=O)NCCOc1ccc(C[C@@H]2CCCC[C@H]2O)cc1 | 62.3 µg/mL (≈ 194 µM)
4 | CC(C)OC(=O)NCCOc1ccc(C[C@@H]2CCCCC23OCCO3)cc1 | 145 µg/mL (≈ 384 µM)
5 | CCCOC(=O)NCCOc1ccc(C[C@@H]2CCCCC23OCCO3)cc1 | > 200 µg/mL
6 | CCCOC(=O)NCCOc1ccc(C[C@@H]2CCCC[C@@H]2O)cc1 | 45.7 µg/mL (≈ 136 µM)
7 | CC(=O)N1CCN(c2ccc(OC[C@H]3CO[C@](Cn4ccnc4)(c4ccc(Cl)cc4Cl)O3)cc2)CC1 [KETOCONAZOLE] | 1.7 µg/mL (≈ 3.2 µM)
8 | COC(=O)NCCOc1ccc(C[C@@H]2CCCC[C@H]2O)cc1 | > 200 µg/mL
9 | C#CCOC(=O)NCCOc1ccc(C[C@@H]2CCCC[C@H]2O)cc1 | > 100 µg/mL
